The subject of assay [1] is adenosine monophosphate-activated protein kinase (AMPK). Put plainly: Activation of AMPK (p-AMPK/AMPK, Western blotting) in liver cell model HepG2. The class given is cell-based, human. As to conditions: HPH-15 at 1/40th the concentration of metformin (2 mM), 24 hours. The text has this:
The tissues involved in glucose uptake and glucose metabolism are mainly the muscle, the liver, and the fat. Thus, using a cell model of each tissue, the relationship between HPH-15 and activation of adenosine monophosphate-activated protein kinase (AMPK) was examined. Note that AMPK is known as a therapeutic target for diabetes. AMPK acts as an energy sensor, and when it detects a decrease in ATP serving as an intracellular energy source, it suppresses the synthesis of glucose, fats, and proteins and produces ATP. Exercise therapy for diabetes is based on this mechanism. Further, AMPK has been drawing attention as a factor that improves insulin resistance.
As a muscle cell model to be used, rat myoblast cell line L6-GLUT4myc (myoblasts expressing myc-tagged GLUT4) was cultured in a minimal essential medium a-MEM (10% FBS) and differentiated into myotubes. Differentiation into myotubes was performed by culturing L6-GLUT4 cells in a-MEM (10% FBS) and then changing the medium to a-MEM (2% FBS), followed by culturing for 6 days. Human HepG2 cell line was used as a liver cell model. As an adipocyte model to be used, mouse 3T3-L1 preadipocyte cell line was differentiated into adipocytes. Differentiation into adipocytes was performed as follows. […]
Next, bands of AMPK and p-AMPK were quantified using ImageJ to determine a ratio of activated AMPK relative to AMPK (p-AMPK/AMPK).
Background: Immunoblotting shows a protein as a band on a membrane.

Assay [2] concerns myotube cell model L6-GLUT4myc, liver cell model HepG2 cells, adipocyte model 3T3-L1. As to the kind of experiment: Glucose uptake (2-deoxyglucose) into cells. It is filed as cell-based, rat, human, mouse. The following applies: HPH-15 10 μM or 50 μM vs metformin 2 mM; 24 hours; 2-deoxyglucose 2 mM, 20 minutes. The procedure: The uptake of glucose into cells by HPH-15 was examined using the myotube cell model L6-GLUT4myc, the liver cell model HepG2 cells, and the adipocyte model 3T3-L1.
The myotube cell model L6-GLUT4myc, the liver cell model HepG2 cells, and the adipocyte model 3T3-L1 used in Example 1 were each seeded onto a 24-well plate (1×10^5 cells/well, […] of culture liquid) and cultured overnight. Then, a DMSO solution (1%) containing HPH-15 (final concentration: 10 μM or 50 μM), metformin (final concentration: 2 mM), or insulin (final concentration: 100 nM) was added to the medium, and the cells were further cultured for 24 hours. As a control, only DMSO solution (1%) was added, and the cells were cultured for 24 hours in the same manner. Next, the cells were washed with KRPH buffer (containing 2% BSA) and cultured in the presence of 2-deoxyglucose (final concentration: 2 mM, FUJIFILM Wako Pure Chemical Corp.) for 20 minutes at 37° C. The uptake of 2-deoxyglucose was stopped by washing the cells with cold PBS, and the amount of glucose taken up into the cells was measured using a Glucose Cellular Uptake Measurement Kit (Cosmo Bio).

For assay [3], the system named is liver cell model HepG2 cells. As to the kind of experiment: Neutral fat accumulation (Oil Red O) in presence of glucose. The class given is cell-based, human. As to conditions: HPH-15 50 μM vs metformin 2 mM, glucose 100 mM, 24 hours. The procedure:
Many patients with type 2 diabetes have fat accumulation in the visceral organs.
The liver cell model HepG2 cells used in Example 1 were seeded onto a 24-well plate (1×10^5 cells/well, […] of culture liquid) and cultured overnight. Then, a DMSO solution (1%) containing HPH-15 (final concentration: 50 μM) or metformin (final concentration: 2 mM) was added to the medium, and the cells were further cultured for 24 hours. As a control, only DMSO solution (1%) was added, and the cells were cultured for 24 hours in the same manner. Next, glucose (100 mM) was added to the medium, and the cells were further cultured for 24 hours. Then, the cells were fixed using 4% paraformaldehyde for 10 minutes. The fixed cells were added with an Oil Red O staining solution (Nacalai Tesque, Inc.) and shaken for 15 minutes. After washing with a 60% aqueous isopropanol solution, cell images were observed using a microscope. Further, the amount of neutral fat in the cells was determined by dissolving the stained cells in 100% isopropanol and measuring the absorbance (492 nm).

On to `CC(C)(C)SCCNC(=S)c1cccc(C(=S)NCCSC(C)(C)C)n1` [HPH-15], for which the “AMPK activation (p-AMPK/AMPK) compared to when metformin was used” value in assay [1] is reported as “approximately 40%”. Besides, in assay [2], the glucose uptake amount result is on record as “increased the glucose uptake amount to the same extent as or to a greater extent than metformin”. The neutral fat accumulation result in assay [3] is “had an inhibitory effect on neutral fat accumulation in the presence of high glucose in the same manner as metformin”.

The values above are taken from US20260000655A1, “PHARMACEUTICAL COMPOSITION FOR USE IN PREVENTION OR TREATMENT OF LIFESTYLE-RELATED DISEASE” (priority 2022, published 2026).
